A melting point compilation (Tetko et al.; mined from patent text by program, amines drawn as free bases though some values may be those of a salt)

Row | Compound | melting point
1 | O=S(=O)(Oc1ccc(C2(c3ccc(OS(=O)(=O)c4ccccc4)cc3)c3ccccc3-c3ccccc32)cc1)c1ccccc1 | 225 to 226 °C
2 | CCCCCCCCCCCCSC(=S)SSC(=S)SCCCCCCCCCCCC | 33 to 35 °C
3 | S=C1CCCC(c2ccc(Br)cc2)N1 (stereo not drawn) | 157 °C
4 | CCN(C(=O)C(C)Cl)c1cn(-c2cccnc2)nc1Cl (stereo not drawn) | 94 to 105 °C
5 | CC(=O)On1cc(-c2ccccc2)c(=O)c(-c2cccc(C(F)(F)F)c2)c1 | 232 to 235 °C
6 | C#C[C@H](Cc1cccc(F)c1)n1nnc2cc3c(cc2c1=O)OCN(C1CC1)C3=O | 168 to 180 °C
7 | CCOc1cc(-c2cc(C(F)(F)F)n3ncc(C(=O)Nc4nc(C)c(S(=O)(=O)NC(C)(CO)CO)s4)c3n2)ccc1C(F)(F)F | 220 °C
8 | C[C@]1(COc2ccc(N3CCC(Oc4ccc(OC(F)(F)F)cc4)CC3)nc2)Cn2cc([N+](=O)[O-])nc2O1 | 186 to 187 °C
9 | O=C(OC1CCCCCCC1)n1c(-c2cscn2)nc2ccccc21 | 85 to 88 °C
10 | CC(C)(C)OC(=O)c1cc(O[C@H]2CC[C@H](NC(=O)Nc3ccc(Cl)c(C(F)(F)F)c3)CC2)ccn1 | 101 to 117 °C
11 | O=C(O)c1cn(C2COC2)c2c(F)c(F)c(F)cc2c1=O | 203 to 206 °C
12 | N#Cc1cc(N)c(N)cc1C#N | 262 to 264 °C
13 | Oc1ccc(-c2cc3cc(O)ccc3o2)c(-c2ccc(OCc3ccccc3)cc2)c1 | 186 to 187 °C
14 | COc1cccc(Cc2nc3n(-c4c(Cl)cc(Cl)cc4Cl)[nH]c(C(C)C)c-3c(=O)n2)c1 | 204 to 205 °C
15 | Cn1c(-c2ccc(Cl)cc2)c(C#N)c(Cl)c1C(F)(F)F | 110 °C
16 | Cc1cc(Br)ccc1-n1ccc(O)n1 | 208 to 210 °C
17 | C=C(C)C(=O)OCc1ccc(O)c(C=O)c1 | 82 to 84 °C
18 | c1coc(-c2ccc(-c3cn([C@H]4CN5CCC4CC5)nn3)s2)c1 | 180 °C
19 | CCC1OC(=O)N(CCc2ccc(NC(=O)c3sc(C)nc3C)cc2)N=C1c1ccc(OC)c(OC)c1 (stereo not drawn) | 217 °C
20 | COc1ccc(C=O)cc1C(=O)NCc1ccc(C(F)(F)F)cc1 | 116 to 117 °C
21 | CC(NC(=O)C1(Cl)C(C)(C)C1(Cl)Cl)c1ccc(Cl)cc1 (stereo not drawn) | 138 to 139 °C
22 | CSc1ccc(NS(=O)(=O)c2cccc3c(N(C)C)cccc23)nn1 | 188 to 190 °C
23 | O=[N+]([O-])c1cccc(-c2nnc(Nc3cccc(Br)c3)s2)c1 | 228 to 231 °C
24 | CSc1ncc2cc(C)c(=O)[nH]c2n1 | 243 to 245 °C
25 | COc1ccc(Cl)cc1C(=O)N(C)OC | 80 to 83 °C

Row | Compound | melting point
26 | C#CCOc1c(OC)cccc1-c1nc2ncccc2[nH]1 | 238 °C
27 | COc1ccccc1C1C2CCC(C2)C12CCC(=S)N2 (stereo not drawn) | 194 °C
28 | O=C(Nc1ccc(Oc2ccnc(NCCN3CCCCC3)n2)c2ccccc12)c1cc(F)cc(N2CCOCC2)c1 | 98 to 100 °C
29 | CCOC1CCC(=O)N1S(=O)(=O)c1ccc(O)cc1 (stereo not drawn) | 162 to 163 °C
30 | CCOC(=O)c1oc2cccc(CCO)c2c1C | 88 to 90 °C
31 | CC(=O)Oc1cccc(C=C2CCCc3cc(C)cnc32)c1 | 66 to 68 °C
32 | Cc1nc(N2CCN(CCC3CC3)C2=O)sc1C(=O)NCc1ccc(F)cc1 | 122 to 123 °C
33 | CN1CCCC1CC(O)c1cccc(O)c1 (stereo not drawn) | 147 to 150 °C
34 | O=C(Cn1nnc2ccccc21)Nc1ccc(-n2nc(C(F)(F)F)cc2C2CC2)cc1 | 200 to 204 °C
35 | OC1CCC2(CC1)CCC(CCc1ccoc1)CC2 (stereo not drawn) | 66 to 69 °C
36 | CCOC(=O)[C@H](Cc1ccc(-c2c(OC)cc(CN3CCSCC3)cc2OC)cc1)NC(=O)c1c(Cl)cccc1Cl | 86 to 89 °C
37 | CC(=O)NCC1CN(c2ccc(-c3cccc(CCl)c3)c(F)c2)C(=O)O1 (stereo not drawn) | 128 to 130 °C
38 | COc1c(Cl)cc(F)c(-n2ncc(C(F)(F)F)cc2=O)c1N | 156 to 157 °C
39 | NC(=O)CC(O)(c1ccc(Br)cc1)c1cccnc1 (stereo not drawn) | 213 to 214 °C
40 | CC(C)c1ccc2nc3ccc(C(=O)OCC#N)cn3c(=O)c2c1 | 186 to 188 °C
41 | COC(=S)NC(=O)c1ccccc1-c1ccc(C)cc1 | 149 to 150 °C
42 | O=C(O)CCCCN1CCN(C2=Nc3ccccc3Cc3ccccc32)CC1 | 235 to 237 °C
43 | CC(O)c1ccc(NS(C)(=O)=O)c(Nc2ccc(F)cc2F)c1 (stereo not drawn) | 192 to 193 °C
44 | COc1cc(OC)c(-c2cccn2C(=O)OC(C)(C)C)cc1/C=C/C(=O)c1ccc(C(=O)O)cc1 | 205 to 207 °C
45 | COc1cc(O)c(C=O)c2cc(-c3ccc(O)cc3)oc12 | 254 to 255 °C
46 | COC(=O)c1ccc(N2CCC(c3ccc4c(c3)C(C)(C)CCC4(C)C)=N2)cc1 | 276 to 278 °C
47 | O=c1ccc2c(-n3cnc(Br)c3)nccc2[nH]1 | 278 to 280 °C
48 | Cc1ccc(C2=NC(C)(C)C(c3ccncc3)C2)cc1 (stereo not drawn) | 102 °C
49 | CCCCOCCOc1ccc(-c2ccc3c(c2)C=C(C(=O)Nc2ccc(S(=O)CCc4nncn4CCC)cc2)CCN3CCC)cc1 (stereo not drawn) | 93 to 101 °C
50 | N#Cc1ccc(Nn2cnnc2)cc1Br | 234 to 236 °C

Row | Compound | melting point
51 | CCCCNc1cc(C(N)=O)cc(S(N)(=O)=O)c1Oc1ccccc1 | 223 to 224 °C
52 | COCCNc1cc(Cl)nc(-c2ccc(C)cc2)n1 | 141 to 144 °C
53 | COc1cc(C(C)=O)ccc1OCCCN1CCC(c2noc3cc(F)ccc23)CC1 | 118 to 120 °C
54 | COc1ccc(-c2csc(Nc3ccc(C)cn3)n2)c(OC)c1 | 157 to 158 °C
55 | COc1c(C=Cc2ccc(C=CC3=C(C#N)C(=C(C#N)C#N)OC3(C)C(F)(F)F)s2)cc2c3c1CCCN3CCC2 (stereo not drawn) | 159 to 161 °C
56 | COC(=O)c1ccc(NC(=O)c2ccccc2-c2ccccc2)cc1 | 160 to 161 °C
57 | COc1ccc(CN(C)CCCCc2ccc(NC(=O)c3cccc4c(=O)c5cccc(N)c5[nH]c34)cc2)cc1OC | 250 °C
58 | COc1ccc(C=NNC(=O)COc2ccc(C3=NNC(=O)CC3)cc2Cl)cc1 | 220 to 222 °C
59 | CCOC(=O)c1cn(NCCC=O)c2nc(C)ccc2c1=O | 175 to 178 °C
60 | O=C(N[C@H]1CCC[C@@H](CN2CC=C(c3ccccc3)CC2)C1)c1ccccc1 | 200 to 204 °C
61 | CC(=O)N1CCC(Oc2ccc([N+](=O)[O-])cc2)(c2ccccc2)CC1 | 145 to 150 °C
62 | COc1ccc(CNc2nnc(N3CCC(O)CC3)c3ccc(C#N)cc23)cc1Cl | 172 to 174 °C
63 | CC(=O)OCc1cnc2c(NC(=O)c3c(Cl)cccc3Cl)cccc2c1 | 199 to 201 °C
64 | Cc1ccc(-c2nccc(-c3ccccc3)n2)cc1[N+](=O)[O-] | 139 °C
65 | N#Cc1cccc(S(=O)(=O)n2c(=O)[nH]c3cc(Cl)ccc3c2=O)c1 | 225 to 226 °C
66 | Cn1c(C(F)(F)F)cc(=O)n(-c2ccc3snc(C=C(Br)Br)c3c2)c1=O | 260 to 262 °C
67 | CCOC(=O)c1ccc(C2=NOC(c3cc(Cl)cc(Cl)c3)(C(F)(F)F)C2)cc1OC (stereo not drawn) | 142 to 144 °C
68 | CCn1c(=O)oc2cc([N+](=O)[O-])ccc21 | 133 to 135 °C
69 | CCOC(=O)c1cn(CC)c2c(F)c(F)c(F)c(F)c2c1=O | 217 to 220 °C
70 | O=C(NOC(=O)c1ccccc1)OCc1ccccc1 | 112 °C
71 | OCC1OC(n2c(Cl)nc3ccc(Br)cc32)C(O)C1O (stereo not drawn) | 152 to 153 °C
72 | COc1cc(C(F)(F)F)nc(S(C)(=O)=O)n1 | 88 to 90 °C
73 | COc1cccc(Oc2c(NS(=O)(=O)c3ccc(C(C)(C)C)cc3)ncnc2OCCOc2ncc(C(C)=O)cn2)c1 | 142 to 144 °C
74 | O=C(O)Cc1cccc2c1ccn2Cc1ccccc1 | 138 to 140 °C
75 | CCS(=O)c1ccc(-c2coc3ccc(-c4nnc(C)o4)cc23)cc1 (stereo not drawn) | 156 to 157 °C

Row | Compound | melting point
76 | CN(C)C1(c2cccc(F)c2)CCC(c2[nH]c3ccccc3c2CCc2ccncc2)CC1 (stereo not drawn) | 301 to 314 °C
77 | Nc1cc(=O)n(Cc2cccc(F)c2)[nH]1 | 129 °C
78 | COc1cccc(OC)c1-c1cc(C(=O)NC2(C(=O)O)C3CC4CC(C3)CC2C4)nn1-c1ccc(C(=O)N(C)CCC(=O)O)cc1C(C)C (stereo not drawn) | 166 to 168 °C
79 | CC(Oc1cccc(C=Cc2ccc3ccc(Cl)cc3n2)c1)C(=O)O (single isomer, unassigned; (-)) | 103 to 105 °C
80 | O=[N+]([O-])c1ccc(-c2nc(-c3ccco3)no2)cc1 | 168 to 170 °C
81 | O=C(O)CCCc1ccc(NS(=O)(=O)c2ccc(Cl)cc2)cn1 | 178 to 180 °C
82 | CC(=O)Nc1ccc(C(O)CO)cn1 (stereo not drawn) | 184 to 185 °C
83 | COc1ccc(S(=O)(=O)C2(C(=O)O)CCN(Cc3ccc(-c4ccccn4)cc3)CC2)cc1 | 217 °C
84 | O=C1Cc2c(cccc2OCC2CO2)N1 (stereo not drawn) | 164 to 166 °C
85 | O=C(O)C1=Cc2ccc(O)cc2CC1 | 195 to 197 °C
86 | CCCc1c(OCCCOc2ccc(N)cc2)ccc(C(C)=O)c1O | 75 to 77 °C
87 | O=C(O)c1cn(-c2cnsn2)c2nc(N3CCCC3)c(F)cc2c1=O | 269 to 273 °C
88 | CC(C)[C@H](NC(=O)OC(C)(C)C)[C@H]1CCn2c(c(C3=C(c4cn(-c5ccccc5)c5ccccc45)C(=O)OC3=O)c3ccccc32)C1 | 148 to 150 °C
89 | NCCOc1ccncc1 | 108 to 112 °C
90 | CC(C)n1nc(Br)c([N+](=O)[O-])c1Br | 72 to 73 °C
91 | Cc1oc(-c2ccccc2)nc1Cc1cc2cc(C=C3OC(=O)NC3=O)ccc2o1 | 185 to 200 °C
92 | O=C(c1ccc(Cl)cc1)c1cccc2cc[nH]c12 | 148 to 149 °C
93 | CCOC(=O)C(=O)CC(=O)c1cn(Cc2ccc(F)cc2)c2c(Cl)cccc2c1=O | 164 to 165 °C
94 | NC(=O)CCC(C(N)=O)c1ccc(F)cc1 (stereo not drawn) | 154 to 157 °C
95 | COc1ccc(CCN(C)CCc2ccc(NC(=O)c3cccc4c(=O)c5cccc(OC)c5[nH]c34)cc2)cc1OC | 179 °C
96 | Cc1c(C#N)c2c(c(C)c1NC(=O)CC(C)(C)C)C(c1ccc(C(C)C)cc1)CO2 (stereo not drawn) | 135 to 136 °C
97 | Cc1cc(F)c(Br)cc1CC(=O)O | 100 to 101 °C
98 | CN(c1ccccc1[N+](=O)[O-])S(=O)(=O)c1cccnc1Cl | 180 °C
